Converted amounts (≈) assume the structure as drawn. Where only a bound is given, the exact number is not on record here.

One data set has as its system HIV-1 (RF) in MT-2 cells. Put plainly: microbe, parasite or virus in culture. In kind it is cell-based. The following applies: Human immunodeficiency virus 1, MT2, 48 h. Put shortly: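 Read-out: gag and pol viral RNA captured by 5′-biotinylated oligonucleotides on streptavidin-coated wells, detected with alkaline phosphatase-linked reporter oligonucleotides, calibrated against BH10 in vitro transcripts. Virus stocks (RF, MN, IIIB) come from H9 cultures; MT-2 host cells kept in RPMI 1640, 5% FCS.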
For orientation: IC90 means the concentration at which the effect reaches the 90% level. For the molecule `CNC(=O)Oc1cccc(CN2C(=O)N(Cc3cccc(OC(=O)NC)c3)C(Cc3ccccc3)C(O)C(O)C2Cc2ccccc2)c1` (stereo not drawn) [Example 9M], the IC90 was less than 10 µg/mL.

The same data set, now with this note: Human immunodeficiency virus 1, MT2, 48 h, HIV RNA assay, HIV-1 infected MT-2 cells; Table 2d; read-out: IC90.
On to `O=C1N(Cc2ccoc2)C(Cc2ccccc2)C(O)C(O)C(Cc2ccccc2)N1Cc1ccoc1` (stereo not drawn) [Example 15FN], for which the IC90 was less than 10 µg/mL.

Still in this data set, the particulars now being: Human immunodeficiency virus 1, MT2, 48 h, Table 2d; HIV RNA assay; read-out: IC90.
Regarding `O=C1N(Cc2cccc(-c3cnc[nH]3)c2)C(Cc2ccccc2)C(O)C(O)C(Cc2ccccc2)N1Cc1cccc(-c2cnc[nH]2)c1` (stereo not drawn) [Example 15BK], the IC90 was less than 10 µg/mL.

In the case of `COC(=O)c1cccc(CN2C(=O)N(Cc3cccc(-c4cc[nH]n4)c3)C(Cc3ccccc3)C(O)C(O)C2Cc2ccccc2)c1` (stereo not drawn) [Example 15BP], the IC90 was less than 10 µg/mL.

`O=C1N(Cc2cccc(-c3ncc[nH]3)c2)C(Cc2ccccc2)C(O)C(O)C(Cc2ccccc2)N1Cc1cccc(-c2ncc[nH]2)c1` (stereo not drawn) [Example 15BR]: the IC90 was less than 10 µg/mL.

In the case of `O=C1N(Cc2cccnc2)C(Cc2ccccc2)C(O)C(O)C(Cc2ccccc2)N1Cc1cccc(-c2cc[nH]n2)c1` (stereo not drawn) [Example 15BU], the IC90 was less than 10 µg/mL.

Regarding `O=C1N(Cc2cccc(-c3cc[nH]n3)c2)C(Cc2ccccc2)C(O)C(O)C(Cc2ccccc2)N1Cc1ccc(O)c(O)c1` (stereo not drawn) [Example 15CC], the IC90 is less than 10 µg/mL.

Regarding `Nc1cccc(CN2C(=O)N(Cc3cccc(-c4cc[nH]n4)c3)C(Cc3ccccc3)C(O)C(O)C2Cc2ccccc2)c1` (stereo not drawn) [Example 15CE], the IC90 is less than 10 µg/mL.

In the case of `N#Cc1cc(CN2C(=O)N(Cc3cccc(-c4cc[nH]n4)c3)C(Cc3ccccc3)C(O)C(O)C2Cc2ccccc2)ccc1F` (stereo not drawn) [Example 15CF], the IC90 was less than 10 µg/mL.

Consider `O=C1N(Cc2cccc(OCCN3CCOCC3)c2)C(Cc2ccccc2)C(O)C(O)C(Cc2ccccc2)N1Cc1cccc(OCCN2CCOCC2)c1` (stereo not drawn) [Example 15YG], for which the IC90 is less than 10 µg/mL.

The same data set, now with this note: Human immunodeficiency virus 1, MT2, 48 h, Table 2d; class symbols; read-out: IC90.
Take `O=C1N(Cc2cccc(C=NO)c2)C(Cc2ccccc2)C(O)C(O)C(Cc2ccccc2)N1Cc1cccc(CNO)c1` (stereo not drawn) [Example 9A]: the IC90 was less than 10 µg/mL.

For the molecule `O=C1N(Cc2cccc(C=NOCc3ccccc3)c2)C(Cc2ccccc2)C(O)C(O)C(Cc2ccccc2)N1Cc1cccc(C=NOCc2ccccc2)c1` (stereo not drawn) [Example 9D], the IC90 was 10 to 100 µg/mL (≈ 12.9 to 129 µM).

Regarding `COC(=O)Oc1cccc(CN2C(=O)N(Cc3cccc(OC(=O)OC)c3)C(Cc3ccccc3)C(O)C(O)C2Cc2ccccc2)c1` (stereo not drawn) [Example 9G], the IC90 is less than 10 µg/mL.

On to `O=C(NCc1ccccc1)Oc1cccc(CN2C(=O)N(Cc3cccc(OC(=O)NCc4ccccc4)c3)C(Cc3ccccc3)C(O)C(O)C2Cc2ccccc2)c1` (stereo not drawn) [Example 9L], for which the IC90 is less than 10 µg/mL.

As for `CC(=O)c1cccc(CN2C(=O)N(Cc3cccc(C(C)=O)c3)C(Cc3ccccc3)C(O)C(O)C2Cc2ccccc2)c1` (stereo not drawn) [Example 9P], the IC90 is less than 10 µg/mL.

In the case of `O=C1N(Cc2cccc(CCl)c2)C(Cc2ccccc2)C(O)C(O)C(Cc2ccccc2)N1Cc1cccc(CCl)c1` (stereo not drawn) [Example 9S], the IC90 was less than 10 µg/mL.

Regarding `CC(=O)c1cccc(CN2C(=O)N(Cc3cccc(Br)c3)C(Cc3ccccc3)C(O)C(O)C2Cc2ccccc2)c1` (stereo not drawn) [Example 9o], the IC90 is less than 10 µg/mL.

On to `NNC(=O)c1cccc(CN2C(=O)N(Cc3cccc(C(=O)NN)c3)C(Cc3ccccc3)C(O)C(O)C2Cc2ccccc2)c1` (stereo not drawn) [Example 10M], for which the IC90 was less than 10 µg/mL.

Regarding `CCOC(=O)c1ccc(CN2C(=O)N(Cc3ccc(C(=O)OCC)cc3)C(Cc3ccccc3)C(O)C(O)C2Cc2ccccc2)cc1` (stereo not drawn) [Example 11F], the IC90 is more than 100 µg/mL.

Tested on in the next data set: not given
Test: not given
Conditions: not given
In general, melting point refers to the temperature of the solid-liquid transition. Regarding `O=C1N(Cc2cccc(C=NO)c2)C(Cc2ccccc2)C(O)C(O)C(Cc2ccccc2)N1Cc1cccc(CNO)c1` (stereo not drawn) [Example 9A], the melting point was 214 to 216 °C.

`O=C1N(Cc2cccc(C=NOCc3ccccc3)c2)C(Cc2ccccc2)C(O)C(O)C(Cc2ccccc2)N1Cc1cccc(C=NOCc2ccccc2)c1` (stereo not drawn) [Example 9D] returned a melting point of 170.5 to 171 °C.

In turn, `COC(=O)Oc1cccc(CN2C(=O)N(Cc3cccc(OC(=O)OC)c3)C(Cc3ccccc3)C(O)C(O)C2Cc2ccccc2)c1` (stereo not drawn) [Example 9G] yielded a melting point of 146 to 147 °C.

`O=C(NCc1ccccc1)Oc1cccc(CN2C(=O)N(Cc3cccc(OC(=O)NCc4ccccc4)c3)C(Cc3ccccc3)C(O)C(O)C2Cc2ccccc2)c1` (stereo not drawn) [Example 9L]: the melting point is 150 °C (dec.).

Take `CNC(=O)Oc1cccc(CN2C(=O)N(Cc3cccc(OC(=O)NC)c3)C(Cc3ccccc3)C(O)C(O)C2Cc2ccccc2)c1` (stereo not drawn) [Example 9M]: the melting point is 150 °C (dec.).

`CC(=O)c1cccc(CN2C(=O)N(Cc3cccc(C(C)=O)c3)C(Cc3ccccc3)C(O)C(O)C2Cc2ccccc2)c1` (stereo not drawn) [Example 9P] returned a melting point of 158 to 159 °C.

In turn, `O=C1N(Cc2cccc(CCl)c2)C(Cc2ccccc2)C(O)C(O)C(Cc2ccccc2)N1Cc1cccc(CCl)c1` (stereo not drawn) [Example 9S] showed a melting point of 156 to 157 °C.

`CC(=O)c1cccc(CN2C(=O)N(Cc3cccc(Br)c3)C(Cc3ccccc3)C(O)C(O)C2Cc2ccccc2)c1` (stereo not drawn) [Example 9o] showed a melting point of 190 to 191 °C.

In the case of `NNC(=O)c1cccc(CN2C(=O)N(Cc3cccc(C(=O)NN)c3)C(Cc3ccccc3)C(O)C(O)C2Cc2ccccc2)c1` (stereo not drawn) [Example 10M], the melting point amounted to 205 °C.

`CCOC(=O)c1ccc(CN2C(=O)N(Cc3ccc(C(=O)OCC)cc3)C(Cc3ccccc3)C(O)C(O)C2Cc2ccccc2)cc1` (stereo not drawn) [Example 11F]: the melting point was 174 to 178 °C.

Molecule `O=C1N(Cc2cccc(-c3cnc[nH]3)c2)C(Cc2ccccc2)C(O)C(O)C(Cc2ccccc2)N1Cc1cccc(-c2cnc[nH]2)c1` (stereo not drawn) [Example 15BK] had a melting point of 171 to 175 °C.

The molecule `COC(=O)c1cccc(CN2C(=O)N(Cc3cccc(-c4cc[nH]n4)c3)C(Cc3ccccc3)C(O)C(O)C2Cc2ccccc2)c1` (stereo not drawn) [Example 15BP] displayed a melting point of 127 to 130 °C.

The molecule `O=C1N(Cc2cccc(-c3ncc[nH]3)c2)C(Cc2ccccc2)C(O)C(O)C(Cc2ccccc2)N1Cc1cccc(-c2ncc[nH]2)c1` (stereo not drawn) [Example 15BR] showed a melting point of 178 to 180 °C.

In turn, `O=C1N(Cc2cccnc2)C(Cc2ccccc2)C(O)C(O)C(Cc2ccccc2)N1Cc1cccc(-c2cc[nH]n2)c1` (stereo not drawn) [Example 15BU] had a melting point of 133 to 136 °C.

Molecule `O=C1N(Cc2cccc(-c3cc[nH]n3)c2)C(Cc2ccccc2)C(O)C(O)C(Cc2ccccc2)N1Cc1ccc(O)c(O)c1` (stereo not drawn) [Example 15CC] returned a melting point of 177 to 180 °C.

`Nc1cccc(CN2C(=O)N(Cc3cccc(-c4cc[nH]n4)c3)C(Cc3ccccc3)C(O)C(O)C2Cc2ccccc2)c1` (stereo not drawn) [Example 15CE] came in with a melting point of 136 to 138 °C.

`N#Cc1cc(CN2C(=O)N(Cc3cccc(-c4cc[nH]n4)c3)C(Cc3ccccc3)C(O)C(O)C2Cc2ccccc2)ccc1F` (stereo not drawn) [Example 15CF] showed a melting point of 118 to 120 °C.

`O=C1N(Cc2ccoc2)C(Cc2ccccc2)C(O)C(O)C(Cc2ccccc2)N1Cc1ccoc1` (stereo not drawn) [Example 15FN] registered a melting point of 152.5 to 153 °C.

`O=C1N(Cc2cccc(OCCN3CCOCC3)c2)C(Cc2ccccc2)C(O)C(O)C(Cc2ccccc2)N1Cc1cccc(OCCN2CCOCC2)c1` (stereo not drawn) [Example 15YG]: the melting point was in the range of 110 to 112 °C.

The target in another data set is single-chain tethered dimer of HIV protease (Human immunodeficiency virus 1, UniProt P04585). Description: biochemical. The data set is classed as biochemical. On the set-up: fused on or other part: A second copy of the same protease unit is joined to the first by a short peptide tether, giving one polypeptide. The settings on record: read-out: HPLC K1; HIV protease inhibition, HPLC method; Table 2d.
`O=C1N(Cc2ccoc2)C(Cc2ccccc2)C(O)C(O)C(Cc2ccccc2)N1Cc1ccoc1` (stereo not drawn) [Example 15FN]: the Ki was less than 10 nM.

The data set is the same for the next values; noted with them: read-out: HPLC K1; Table 2d; HIV protease inhibition, HPLC method.
Regarding `O=C1N(Cc2cccc(-c3cnc[nH]3)c2)C(Cc2ccccc2)C(O)C(O)C(Cc2ccccc2)N1Cc1cccc(-c2cnc[nH]2)c1` (stereo not drawn) [Example 15BK], the Ki was less than 10 nM.

Turning to `COC(=O)c1cccc(CN2C(=O)N(Cc3cccc(-c4cc[nH]n4)c3)C(Cc3ccccc3)C(O)C(O)C2Cc2ccccc2)c1` (stereo not drawn) [Example 15BP], the Ki is less than 10 nM.

Take `O=C1N(Cc2cccc(-c3ncc[nH]3)c2)C(Cc2ccccc2)C(O)C(O)C(Cc2ccccc2)N1Cc1cccc(-c2ncc[nH]2)c1` (stereo not drawn) [Example 15BR]: the Ki is less than 10 nM.

In the case of `O=C1N(Cc2cccnc2)C(Cc2ccccc2)C(O)C(O)C(Cc2ccccc2)N1Cc1cccc(-c2cc[nH]n2)c1` (stereo not drawn) [Example 15BU], the Ki is less than 10 nM.

`O=C1N(Cc2cccc(-c3cc[nH]n3)c2)C(Cc2ccccc2)C(O)C(O)C(Cc2ccccc2)N1Cc1ccc(O)c(O)c1` (stereo not drawn) [Example 15CC]: the Ki is less than 10 nM.

In the case of `Nc1cccc(CN2C(=O)N(Cc3cccc(-c4cc[nH]n4)c3)C(Cc3ccccc3)C(O)C(O)C2Cc2ccccc2)c1` (stereo not drawn) [Example 15CE], the Ki was less than 10 nM.

For the molecule `N#Cc1cc(CN2C(=O)N(Cc3cccc(-c4cc[nH]n4)c3)C(Cc3ccccc3)C(O)C(O)C2Cc2ccccc2)ccc1F` (stereo not drawn) [Example 15CF], the Ki was less than 10 nM.

With `O=C1N(Cc2cccc(OCCN3CCOCC3)c2)C(Cc2ccccc2)C(O)C(O)C(Cc2ccccc2)N1Cc1cccc(OCCN2CCOCC2)c1` (stereo not drawn) [Example 15YG], the Ki fell in the range of 10 to 1000 nM.

The same data set, now with this note: read-out: HPLC K1; Table 2d; class symbols.
For `O=C1N(Cc2cccc(C=NO)c2)C(Cc2ccccc2)C(O)C(O)C(Cc2ccccc2)N1Cc1cccc(CNO)c1` (stereo not drawn) [Example 9A], the Ki lay within 10 to 1000 nM.

In the case of `O=C1N(Cc2cccc(C=NOCc3ccccc3)c2)C(Cc2ccccc2)C(O)C(O)C(Cc2ccccc2)N1Cc1cccc(C=NOCc2ccccc2)c1` (stereo not drawn) [Example 9D], the Ki lay in the range of 10 to 1000 nM.

Regarding `COC(=O)Oc1cccc(CN2C(=O)N(Cc3cccc(OC(=O)OC)c3)C(Cc3ccccc3)C(O)C(O)C2Cc2ccccc2)c1` (stereo not drawn) [Example 9G], the Ki was 10 to 1000 nM.

Regarding `O=C(NCc1ccccc1)Oc1cccc(CN2C(=O)N(Cc3cccc(OC(=O)NCc4ccccc4)c3)C(Cc3ccccc3)C(O)C(O)C2Cc2ccccc2)c1` (stereo not drawn) [Example 9L], the Ki lay within 10 to 1000 nM.

As for `CNC(=O)Oc1cccc(CN2C(=O)N(Cc3cccc(OC(=O)NC)c3)C(Cc3ccccc3)C(O)C(O)C2Cc2ccccc2)c1` (stereo not drawn) [Example 9M], the Ki was in the range of 10 to 1000 nM.

In the case of `CC(=O)c1cccc(CN2C(=O)N(Cc3cccc(C(C)=O)c3)C(Cc3ccccc3)C(O)C(O)C2Cc2ccccc2)c1` (stereo not drawn) [Example 9P], the Ki fell in the range of 10 to 1000 nM.

As for `O=C1N(Cc2cccc(CCl)c2)C(Cc2ccccc2)C(O)C(O)C(Cc2ccccc2)N1Cc1cccc(CCl)c1` (stereo not drawn) [Example 9S], the Ki was 10 to 1000 nM.

For the molecule `CC(=O)c1cccc(CN2C(=O)N(Cc3cccc(Br)c3)C(Cc3ccccc3)C(O)C(O)C2Cc2ccccc2)c1` (stereo not drawn) [Example 9o], the Ki was in the range of 10 to 1000 nM.

`NNC(=O)c1cccc(CN2C(=O)N(Cc3cccc(C(=O)NN)c3)C(Cc3ccccc3)C(O)C(O)C2Cc2ccccc2)c1` (stereo not drawn) [Example 10M]: the Ki is less than 10 nM.

In the case of `CCOC(=O)c1ccc(CN2C(=O)N(Cc3ccc(C(=O)OCC)cc3)C(Cc3ccccc3)C(O)C(O)C2Cc2ccccc2)cc1` (stereo not drawn) [Example 11F], the Ki was in the range of 10 to 1000 nM.

For the origin of these results see patent USRE37781E1, “Substituted cyclic carbonyls and derivatives thereof useful as retroviral protease inhibitors” (DuPont Pharmaceuticals Company, priority 1991, dated 2002).
